The text below walks through data of patent publication US8580794B2 (AbbVie Inc., priority 2009, dated 2013).

The assay deals with GST-Bc1-2 (Homo sapiens, UniProt P10415). Briefly: Time Resolved-Fluorescence Resonance Energy Transfer (TR-FRET) Bcl-2 binding assay with F-Bak peptide probe. The conditions noted are these: GST-Bcl-2 1 nM, F-Bak probe 100 nM, Tb-anti-GST 1 nM; '<' = below limit of detection; read-out: TR-FRET Bcl-2 Binding Ki.

The structures appear in SMILES notation.

GST-Bc1-2, sequence (P10415 whole entry): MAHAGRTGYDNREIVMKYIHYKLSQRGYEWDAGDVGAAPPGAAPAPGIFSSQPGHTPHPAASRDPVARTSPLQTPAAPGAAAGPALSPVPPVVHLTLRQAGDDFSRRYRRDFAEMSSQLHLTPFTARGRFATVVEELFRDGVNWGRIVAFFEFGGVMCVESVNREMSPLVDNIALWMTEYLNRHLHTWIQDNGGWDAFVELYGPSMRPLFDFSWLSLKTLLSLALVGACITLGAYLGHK

`CC1(C)CCC(CN2CCN(c3ccc(C(=O)NS(=O)(=O)c4cnc(OCC5CCOCC5)c(Cl)c4)c(Oc4cnc5[nH]ccc5c4)c3)CC2)=C(c2ccc(Cl)cc2)C1` [Example 40, 4-(4-{[2-(4-chlorophenyl)-4,4-dimethylcyclohex-1-en-1-yl]methyl}piperazin-1-yl)-N-{[5-chloro-6-(tetrahydro-2H-pyran-4-ylmethoxy)pyridin-3-yl]sulfonyl}-2-(1H-pyrrolo[2,3-b]pyridin-5-yloxy)benzamide]: the Ki is < 0.01 nM.
With `CC1(C)CC(c2ccc(Cl)cc2)=C(CN2CCN(c3ccc(C(=O)NS(=O)(=O)c4cnc(OCC5CCOCC5)c(Cl)c4)c(Oc4cnc5[nH]ccc5c4)c3)CC2)CO1` [Example 41, 4-(4-{[4-(4-chlorophenyl)-6,6-dimethyl-5,6-dihydro-2H-pyran-3-yl]methyl}piperazin-1-yl)-N-{[5-chloro-6-(tetrahydro-2H-pyran-4-ylmethoxy)pyridin-3-yl]sulfonyl}-2-(1H-pyrrolo[2,3-b]pyridin-5-yloxy)benzamide], the Ki was < 0.01 nM.
For the compound `CC1(C)CC(c2ccc(Cl)cc2)=C(CN2CCN(c3ccc(C(=O)NS(=O)(=O)c4ccc(NCC5CCOCC5)c(C(F)(F)F)c4)c(Oc4cnc5[nH]ccc5c4)c3)CC2)CO1` [Example 42, 4-(4-{[4-(4-chlorophenyl)-6,6-dimethyl-5,6-dihydro-2H-pyran-3-yl]methyl}piperazin-1-yl)-2-(1H-pyrrolo[2,3-b]pyridin-5-yloxy)-N-{[4-[(tetrahydro-2H-pyran-4-ylmethyl)amino]-3-(trifluoromethyl)phenyl]sulfonyl}benzamide], the Ki was found to be 0.439 nM.
As to `CC1(C)CC(c2ccc(Cl)cc2)=C(CN2CCN(c3ccc(C(=O)NS(=O)(=O)c4ccc(NCC5CCOCC5)c(S(=O)(=O)C(F)(F)F)c4)c(Oc4cnc5[nH]ccc5c4)c3)CC2)CO1` [Example 43, 4-(4-{[4-(4-chlorophenyl)-6,6-dimethyl-5,6-dihydro-2H-pyran-3-yl]methyl}piperazin-1-yl)-2-(1H-pyrrolo[2,3-b]pyridin-5-yloxy)-N-({4-[(tetrahydro-2H-pyran-4-ylmethyl)amino]-3-[(trifluoromethyl)sulfonyl]phenyl}sulfonyl)benzamide], the Ki amounted to 0.012 nM.
As to `CC1(C)CC(c2ccc(Cl)cc2)=C(CN2CCN(c3ccc(C(=O)NS(=O)(=O)c4ccc(N[C@H]5CC[C@H](N6CCOCC6)CC5)c(S(=O)(=O)C(F)(F)F)c4)c(Oc4cnc5[nH]ccc5c4)c3)CC2)CO1` [Example 44, Trans-4-(4-{[4-(4-chlorophenyl)-6,6-dimethyl-5,6-dihydro-2H-pyran-3-yl]methyl}piperazin-1-yl)-N-({4-[(4-morpholin-4-ylcyclohexyl)amino]-3-[(trifluoromethyl)sulfonyl]phenyl}sulfonyl)-2-(1H-pyrrolo[2,3-b]pyridin-5-yloxy)benzamide], the Ki was < 0.01 nM.
Regarding `CN1CCC(Nc2ccc(S(=O)(=O)NC(=O)c3ccc(N4CCN(CC5=C(c6ccc(Cl)cc6)CC(C)(C)OC5)CC4)cc3Oc3cnc4[nH]ccc4c3)cc2S(=O)(=O)C(F)(F)F)CC1` [Example 45, 4-(4-{[4-(4-chlorophenyl)-6,6-dimethyl-5,6-dihydro-2H-pyran-3-yl]methyl}piperazin-1-yl)-N-({4-[(1-methylpiperidin-4-yl)amino]-3-[(trifluoromethyl)sulfonyl]phenyl}sulfonyl)-2-(1H-pyrrolo[2,3-b]pyridin-5-yloxy)benzamide], the Ki was < 0.01 nM.
As to `CC1(C)CCC(CN2CCN(c3ccc(C(=O)NS(=O)(=O)c4cnc(OCC5CCOCC5)c(C(N)=O)c4)c(Oc4cnc5[nH]ccc5c4)c3)CC2)=C(c2ccc(Cl)cc2)C1` [Example 46, 5-({[4-(4-{[2-(4-chlorophenyl)-4,4-dimethylcyclohex-1-en-1-yl]methyl}piperazin-1-yl)-2-(1H-pyrrolo[2,3-b]pyridin-5-yloxy)benzoyl]amino}sulfonyl)-2-(tetrahydro-2H-pyran-4-ylmethoxy)nicotinamide], the Ki worked out at 0.935 nM.

A word on the Ki: it is the equilibrium dissociation constant of an inhibitor or competing ligand from its target.
